Values of other authors, collected in US8486426B2, “Methods and compositions for treatment of dermal conditions” (Kimberly-Clark Worldwide, Inc., priority 2002, dated 2013).

Tests used:
onychomycosis = conditions: for Clinical cure rate: total dystrophic onychomycosis (TDO), oral drug
[1] = system: dermatophytes, yeast and molds that typically cause onychomycosis
[2] = for deaths among liver failure cases: reported by/through 2001
[3] = in vivo

Structure (SMILES): CCC(C)(C)c1ccc(CC(C)CN2C[C@@H](C)O[C@@H](C)C2)cc1 (some centres unmarked) [LOCERYL, amorolfine]
- effective in share of the cases (onychomycosis; mild onychomycosis with no matrix involvement, topical 5% solution): about 40%

Structure (SMILES): Cc1cc(C2CCCCC2)n(O)c(=O)c1 [PENLAC, ciclopirox olamine]
- in vitro action on fungi [1]: fungicidal
- cure rate (onychomycosis; mild to moderate DLSO, average 40% of nail involved, no matrix infection, topical): 7%

Structure (SMILES): CCC(C)n1ncn(-c2ccc(N3CCN(c4ccc(OCC5COC(Cn6cncn6)(c6ccc(Cl)cc6Cl)O5)cc4)CC3)cc2)c1=O (centres unmarked) [SPORANOX, itraconazol]
- deaths among pulmonary edema cases ([2]; as of 2001): 13 deaths
- cases of liver failure reported ([2]; in vivo): 24 cases
- cases of pulmonary edema (probable association) ([2]; in vivo): 58 cases
- deaths among liver failure cases [2]: 11 deaths

Structure (SMILES): CN(C/C=C/C#CC(C)(C)C)Cc1cccc2ccccc12 [TERBINAFINE, terbinafine]
- cases of liver failure reported ([2]; in vivo): 16 cases
- liver transplants reported ([2]; in vivo): 2 liver transplants
- deaths among liver failure cases [2]: 11 deaths
- Clinical cure rate (onychomycosis): 37%
- persistence after treatment [3]: several months
- time at which detectable in the nail bed [3]: one week

Structure (SMILES): OC(Cn1cncn1)(Cn1cncn1)c1ccc(F)cc1F [fluconazole]
- Clinical cure rate (onychomycosis): about 38%
